≈ marks a conversion by molar mass, not a printed value.
What was measured:
[1] = cells; details: Homo sapiens, HCT-116, 72 h
[2] = Cytotoxicity against human MDA-MB-231 cells after 72 hrs by MTT assay; type: functional, cell-based; details: MDA-MB-231, 72 h
[3] = Cytotoxicity against human A549 cells after 72 hrs by MTT assay; type: functional, cell-based; details: A549, 72 h
[4] = Cytotoxicity against human HepG2 cells after 72 hrs by MTT assay; type: functional, cell-based; details: HepG2, 72 h
[5] = Cytotoxicity against human U87MG cells after 72 hrs by MTT assay; type: functional, cell-based, U-87MG ATCC; details: U-87 MG
[6] = Cytotoxicity against human NCI60 cells after 48 hrs by SRB assay; type: functional; details: NCI60, 48 h
[7] = target: Phosphatidylinositol 4,5-bisphosphate 3-kinase catalytic subunit alpha isoform (Homo sapiens, UniProt P42336); assay: Inhibition of PI3Kalpha (unknown origin) using PIP2 as substrate after 1 hr in presence of ATP by kinase-glo luminescence assay
[8] = Aqueous solubility of the compound in pH 1 simulated gastric fluid; type: ADME
[9] = Antitumor activity against human A549 cells xenografted in BALB/c nude mouse assessed as tumor growth inhibition at 3 mg/kg, ig administered via oral gavage once daily for 9 consecutive days followed by subsequent dosing on days 13 and 14 measured on day 30 relative to control; type: functional; details: 720 h, read-out: TGI
[10] = Antitumor activity against human A549 cells xenografted in BALB/c nude mouse assessed as tumor volume at 3 mg/kg, ig administered via oral gavage once daily for 9 consecutive days followed by subsequent dosing on day 13 and 14 measured on day 11 (reference value: 1327.66 +/- 404.92 mm3); type: functional
[11] = Antitumor activity against human A549 cells xenografted in BALB/c nude mouse assessed as tumor volume at 3 mg/kg, ig administered via oral gavage once daily for 9 consecutive days followed by subsequent dosing on day 13 and 14 measured on day 18 (reference value: 3045.91 +/- 854.27 mm3); type: functional
[12] = Antitumor activity against human A549 cells xenografted in BALB/c nude mouse assessed as tumor volume at 3 mg/kg, ig administered via oral gavage once daily for 9 consecutive days followed by subsequent dosing on day 13 and 14 measured on day 8 (reference value: 840.07 +/- 205.19 mm3); type: functional
[13] = system: Mus musculus; assay: Toxicity in nude BALB/c mouse xenografted with human A549 cells assessed as body weight at 3 mg/kg, ig administered via oral gavage once daily for 9 consecutive days followed by subsequent dosing on day 13 and 14 measured on day 11 (reference value: 26.11 +/- 1.06 g); type: organism-based; details: in vivo
[14] = system: Mus musculus; assay: Toxicity in nude BALB/c mouse xenografted with human A549 cells assessed as body weight at 3 mg/kg, ig administered via oral gavage once daily for 9 consecutive days followed by subsequent dosing on day 13 and 14 measured on day 8 (reference value: 25.66 +/- 1.04 g); type: organism-based; details: in vivo
[15] = system: Mus musculus; assay: Toxicity in nude BALB/c mouse xenografted with human A549 cells assessed as body weight at 3 mg/kg, ig administered via oral gavage once daily for 9 consecutive days followed by subsequent dosing on day 13 and 14 measured on day 1 (reference value: 24.38 +/- 0.76 g); type: organism-based; details: in vivo
[16] = Antitumor activity against human A549 cells xenografted in BALB/c nude mouse assessed as tumor volume at 3 mg/kg, ig administered via oral gavage once daily for 9 consecutive days followed by subsequent dosing on day 13 and 14 measured on day 1 (reference value: 156.87 +/- 22.32 mm3); type: functional
[17] = system: Mus musculus; assay: Toxicity in nude BALB/c mouse xenografted with human A549 cells assessed as body weight at 3 mg/kg, ig administered via oral gavage once daily for 9 consecutive days followed by subsequent dosing on day 13 and 14 measured on day 15 (reference value: 27.12 +/- 1.43 g); type: organism-based; details: in vivo
[18] = Antitumor activity against human A549 cells xenografted in BALB/c nude mouse assessed as tumor volume at 3 mg/kg, ig administered via oral gavage once daily for 9 consecutive days followed by subsequent dosing on day 13 and 14 measured on day 4 (reference value: 419.55 +/- 104.72 mm3); type: functional
[19] = system: Mus musculus; assay: Toxicity in nude BALB/c mouse xenografted with human A549 cells assessed as body weight at 3 mg/kg, ig administered via oral gavage once daily for 9 consecutive days followed by subsequent dosing on day 13 and 14 measured on day 4 (reference value: 24.77 +/- 0.93 g); type: organism-based; details: in vivo
[20] = Antitumor activity against human A549 cells xenografted in BALB/c nude mouse assessed as tumor volume at 3 mg/kg, ig administered via oral gavage once daily for 9 consecutive days followed by subsequent dosing on day 13 and 14 measured on day 15 (reference value: 2071.51 +/- 682.84 mm3); type: functional
[21] = system: Mus musculus; assay: Toxicity in nude BALB/c mouse xenografted with human A549 cells assessed as body weight at 3 mg/kg, ig administered via oral gavage once daily for 9 consecutive days followed by subsequent dosing on day 13 and 14 measured on day 18 (reference value: 27.75 +/- 1.41 g); type: organism-based; details: in vivo
[22] = system: HCT-116; assay: Potency index, ratio of GSK2126458 IC50 to compound IC50 for human HCT116 cells; type: functional

Phosphatidylinositol 4,5-bisphosphate 3-kinase catalytic subunit alpha isoform, sequence (P42336 whole entry, canonical isoform): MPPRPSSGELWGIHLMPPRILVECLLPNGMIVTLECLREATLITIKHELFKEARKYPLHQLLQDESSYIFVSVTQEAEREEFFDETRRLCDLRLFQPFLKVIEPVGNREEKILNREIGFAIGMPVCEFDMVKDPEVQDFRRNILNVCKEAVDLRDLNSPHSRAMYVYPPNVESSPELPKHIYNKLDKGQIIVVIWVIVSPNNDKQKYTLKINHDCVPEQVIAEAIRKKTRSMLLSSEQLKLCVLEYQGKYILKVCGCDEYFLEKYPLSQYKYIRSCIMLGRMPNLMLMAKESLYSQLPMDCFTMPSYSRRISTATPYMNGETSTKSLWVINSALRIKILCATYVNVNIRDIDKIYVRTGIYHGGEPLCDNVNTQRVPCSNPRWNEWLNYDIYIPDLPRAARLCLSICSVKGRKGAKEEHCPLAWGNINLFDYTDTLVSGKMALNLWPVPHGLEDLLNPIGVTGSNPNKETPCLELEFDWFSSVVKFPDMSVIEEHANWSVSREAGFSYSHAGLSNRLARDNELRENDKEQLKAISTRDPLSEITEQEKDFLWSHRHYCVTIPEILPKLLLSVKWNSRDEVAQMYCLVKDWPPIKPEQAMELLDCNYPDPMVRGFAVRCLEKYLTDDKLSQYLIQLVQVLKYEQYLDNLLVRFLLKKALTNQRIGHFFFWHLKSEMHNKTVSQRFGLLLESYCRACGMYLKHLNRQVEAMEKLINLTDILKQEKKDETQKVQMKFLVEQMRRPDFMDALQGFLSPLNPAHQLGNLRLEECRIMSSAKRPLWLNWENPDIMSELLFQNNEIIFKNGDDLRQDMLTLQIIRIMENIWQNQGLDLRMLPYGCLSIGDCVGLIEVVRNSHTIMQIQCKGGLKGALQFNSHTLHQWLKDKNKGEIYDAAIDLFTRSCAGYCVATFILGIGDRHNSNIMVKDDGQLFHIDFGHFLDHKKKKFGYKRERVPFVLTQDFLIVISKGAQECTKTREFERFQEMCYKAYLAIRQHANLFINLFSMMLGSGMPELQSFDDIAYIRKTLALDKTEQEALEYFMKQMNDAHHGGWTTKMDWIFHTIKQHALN

| SMILES | IC50 [1] [µM] | IC50 [2] [µM] | IC50 [3] [µM] | IC50 [4] [µM] | IC50 [5] [µM] | further results |
| --- | --- | --- | --- | --- | --- | --- |
| COc1ncc(-c2ccc3nccc(Cl)c3c2)cc1NS(=O)(=O)c1ccc(F)cc1F | 6.59 |  | 2.94 |  | > 100 |  |
| CC[C@@]1(O)C(=O)OCc2c1cc1n(c2=O)Cc2cc3ccccc3nc2-1 [CAMPTOTHECIN] |  |  |  |  |  | GI50 [6]: 0.0398 µM |
| COc1ncc(-c2ccc3nccc(-c4ccc(CN5CCN(CCO)CC5)cc4)c3c2)cc1NS(=O)(=O)c1ccc(F)cc1F | 0.0217 |  | 0.0248 |  | 0.0212 |  |
| CC(=O)O[C@H]1C(=O)[C@@]2(C)[C@H]([C@H](OC(=O)c3ccccc3)[C@]3(O)C[C@H](OC(=O)[C@H](O)[C@@H](NC(=O)c4ccccc4)c4ccccc4)C(C)=C1C3(C)C)[C@]1(OC(C)=O)CO[C@@H]1C[C@@H]2O [PACLITAXEL] |  |  |  |  |  | GI50 [6]: 0.0315 µM |
| COc1ncc(-c2ccc3nccc(-c4ccc(CN5CCOCC5)cc4)c3c2)cc1NS(=O)(=O)c1ccc(F)cc1 | 0.03 | 1.97 | 0.017 | 27.2 |  |  |
| COc1ncc(-c2ccc3nccc(-c4ccc(CN(C)CCO)cc4)c3c2)cc1NS(=O)(=O)c1ccc(F)cc1 | 0.025 | 0.21 | 0.022 | 1.85 |  |  |
| COc1ncc(-c2ccc3nccc(-c4ccc(CN(C)CCN(C)C)cc4)c3c2)cc1NS(=O)(=O)c1ccc(F)cc1F |  |  | 0.013 |  | 0.254 | IC50 [7]: 0.0025 µM |
| O=S(=O)(Nc1cc(-c2ccc3nccc(-c4ccc(CN5CCOCC5)cc4)c3c2)cnc1Cl)c1ccc(F)cc1 | 0.041 | 2.58 | 0.053 | 7.74 |  |  |
| CN(CCO)Cc1ccc(-c2ccnc3ccc(-c4cnc(Cl)c(NS(=O)(=O)c5ccc(F)cc5)c4)cc23)cc1 | 0.024 | 0.26 | 0.015 | 1.91 |  |  |
| COc1ncc(-c2ccc3nccc(N4CCCC4)c3c2)cc1NS(=O)(=O)c1ccc(F)cc1F | 3.32 |  | 3.41 |  | 6.69 |  |
| COc1ncc(-c2ccc3nccc(-c4ccc(CN5CCOCC5)cc4)c3c2)cc1NS(=O)(=O)c1ccc(F)cc1F |  |  | 0.07 |  |  | IC50 [7]: 0.0011 µM |
| COc1ncc(-c2ccc3nccc(-c4ccnnc4)c3c2)cc1NS(=O)(=O)c1ccc(F)cc1F [OMIPALISIB] | 0.154 |  | 0.14 |  | 0.537 | solubility [8]: 0.2 mg/mL (≈ 396 µM); inhibition in vivo at 3 mg/kg [9]: 65.9%; Activity [10]: 520.69 mm3; Activity [11]: 968.24 mm3; Activity [12]: 396.45 mm3; Activity [13]: 21.63 g; Activity [14]: 22.98 g; Activity [15]: 24.7 g; Activity [16]: 146.36 mm3; Activity [17]: 20.92 g; Activity [18]: 261.5 mm3; Activity [19]: 24.55 g; Activity [20]: 669.43 mm3; Activity [21]: 22.22 g |
| COc1ncc(-c2ccc3nccc(-c4ccc(CN5CCN(C(C)C)CC5)cc4)c3c2)cc1NS(=O)(=O)c1ccc(F)cc1F | 0.0247 |  | 0.0019 |  | 0.468 |  |
| COc1ncc(-c2ccc3nccc(-c4ccc(CN(CCO)CCO)cc4)c3c2)cc1NS(=O)(=O)c1ccc(F)cc1F | 0.0038 |  | 0.0028 |  | 0.143 |  |
| COc1ncc(-c2ccc3nccc(-c4ccc(CN(C)C)cc4)c3c2)cc1NS(=O)(=O)c1ccc(F)cc1 | 0.024 | 0.35 | 0.025 | 3.02 |  |  |
| CCN(Cc1ccc(-c2ccnc3ccc(-c4cnc(OC)c(NS(=O)(=O)c5ccc(F)cc5F)c4)cc23)cc1)C1CCCCC1 | 0.223 |  | 0.0202 |  | 1.45 |  |
| COc1ncc(-c2ccc3nccc(-c4ccc(CN(C)CCO)cc4)c3c2)cc1NS(=O)(=O)c1ccc(F)cc1F | 0.0047 |  | 0.02 |  |  | Ratio IC50 [22]: >30 |
| COc1ncc(-c2ccc3nccc(N4CCOCC4)c3c2)cc1NS(=O)(=O)c1ccc(F)cc1F | 4.43 |  | 2.4 |  | > 100 |  |

Second part, led by results:

| IC50 [1] [µM] | SMILES | IC50 [2] [µM] | IC50 [3] [µM] | IC50 [4] [µM] | IC50 [5] [µM] | further results |
| --- | --- | --- | --- | --- | --- | --- |
| 0.026 | COc1ncc(-c2ccc3nccc(-c4ccc(Cn5cncn5)cc4)c3c2)cc1NS(=O)(=O)c1ccc(F)cc1 | 0.283 | 0.033 | 12.7 |  |  |
| 0.0341 | COc1ncc(-c2ccc3nccc(-c4ccc(CN5CCCCC5)cc4)c3c2)cc1NS(=O)(=O)c1ccc(F)cc1F |  | 0.0155 |  | 0.032 |  |
| 0.0188 | COc1ncc(-c2ccc3nccc(-c4ccc(CN5CCCC5)cc4)c3c2)cc1NS(=O)(=O)c1ccc(F)cc1F |  | 0.0375 |  | 0.159 |  |
| 0.0142 | COc1ncc(-c2ccc3nccc(-c4ccc(Cn5ccnc5C)cc4)c3c2)cc1NS(=O)(=O)c1ccc(F)cc1F |  | 0.0102 |  | 0.04 |  |
| 2.54 | COc1ncc(-c2ccc3nccc(-c4ccc(C)cc4)c3c2)cc1NS(=O)(=O)c1ccc(F)cc1F |  | 1.24 |  | 67 |  |
| 0.005 | CCN(CC)Cc1ccc(-c2ccnc3ccc(-c4cnc(OC)c(NS(=O)(=O)c5ccc(F)cc5F)c4)cc23)cc1 |  | 0.022 to 0.0221 |  | 4.89 |  |
| 0.051 | O=S(=O)(Nc1cc(-c2ccc3nccc(-c4ccc(CN5CCOCC5)cc4)c3c2)cnc1Cl)c1ccc(F)cc1F | 2.43 | 0.024 | 2.31 |  |  |
| 0.0326 | COc1ncc(-c2ccc3nccc(-c4ccc(Cn5ccnc5)cc4)c3c2)cc1NS(=O)(=O)c1ccc(F)cc1F |  | 0.0308 |  | 0.6 |  |
| 0.041 | CN(CCO)Cc1ccc(-c2ccnc3ccc(-c4cnc(Cl)c(NS(=O)(=O)c5ccc(F)cc5F)c4)cc23)cc1 | 0.337 | 0.121 | 2.88 |  |  |
| 0.024 | CN(C)Cc1ccc(-c2ccnc3ccc(-c4cnc(Cl)c(NS(=O)(=O)c5ccc(F)cc5F)c4)cc23)cc1 | 0.053 | 0.251 | 3.86 |  |  |
| 0.0531 | COc1ncc(-c2ccc3nccc(-c4ccc(Cn5cccn5)cc4)c3c2)cc1NS(=O)(=O)c1ccc(F)cc1F |  | 0.0308 |  | 1.6 |  |
| 0.033 | O=S(=O)(Nc1cc(-c2ccc3nccc(-c4ccc(Cn5cncn5)cc4)c3c2)cnc1Cl)c1ccc(F)cc1 | 0.228 | 0.178 | 9.6 |  |  |
| 0.036 | O=S(=O)(Nc1cc(-c2ccc3nccc(-c4ccc(Cn5cncn5)cc4)c3c2)cnc1Cl)c1ccc(F)cc1F | 0.34 | 0.642 | 2.04 |  |  |
| 0.0439 | COc1ncc(-c2ccc3nccc(-c4ccc(CN5CCN(C)CC5)cc4)c3c2)cc1NS(=O)(=O)c1ccc(F)cc1F |  | 0.0133 |  | 0.336 |  |
| 0.0087 | COc1ncc(-c2ccc3nccc(-c4ccc(Cn5cncn5)cc4)c3c2)cc1NS(=O)(=O)c1ccc(F)cc1F |  | 0.016 |  |  | Ratio IC50 [22]: 18 |
